Measured values as given in PubChem BioAssay (NCI).
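Cells were grown in 96-well plates and exposed to each compound for 48 hours at five concentrations; endpoints were interpolated linearly between bracketing concentrations, or set to the highest concentration if not reached. GI50: concentration for 50% inhibition of growth. TGI is the concentration that stops growth completely.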

Assays:
Assay in all cases: NCI tumour cell line growth inhibition, 48 h
MDA-MB-468 breast = tested on: MDA-MB-468 breast
T-47D breast = tested on: T-47D breast
KM12 colon = tested on: KM12 colon
MOLT-4 leukemia = tested on: MOLT-4 leukemia
OVCAR-5 ovarian = tested on: OVCAR-5 ovarian
OVCAR-3 ovarian = tested on: OVCAR-3 ovarian
SF-295 CNS = tested on: SF-295 CNS
TK-10 renal = tested on: TK-10 renal
BT-549 breast = tested on: BT-549 breast
OVCAR-8 ovarian = tested on: OVCAR-8 ovarian
UACC-62 melanoma = tested on: UACC-62 melanoma
RPMI-8226 leukemia = tested on: RPMI-8226 leukemia
A498 renal = tested on: A498 renal
U251 CNS = tested on: U251 CNS
SN12C renal = tested on: SN12C renal
CCRF-CEM leukemia = tested on: CCRF-CEM leukemia
SK-MEL-28 melanoma = tested on: SK-MEL-28 melanoma
COLO 205 colon = tested on: COLO 205 colon
HCT-116 colon = tested on: HCT-116 colon
NCI-H460 lung = tested on: NCI-H460 lung
DU-145 prostate = tested on: DU-145 prostate
ACHN renal = tested on: ACHN renal
SK-MEL-5 melanoma = tested on: SK-MEL-5 melanoma
HS 578T breast = tested on: HS 578T breast
HT29 colon = tested on: HT29 colon
LOX IMVI melanoma = tested on: LOX IMVI melanoma
HOP-92 NSCLC = tested on: HOP-92 NSCLC
NCI/ADR-RES ovarian = tested on: NCI/ADR-RES ovarian
NCI-H522 lung = tested on: NCI-H522 lung

## O=C(NNc1nc2cc(F)ccc2n2c(CN3CC4CNCC4C3)ccc12)c1ccncn1 (stereo not drawn)
MDA-MB-468 breast
  GI50: 1.21 µM
  TGI: 3.57 µM
T-47D breast
  GI50: 3.11 µM
  TGI: 14.7 µM
KM12 colon
  GI50: 1.78 µM
  TGI: 16.2 µM
MOLT-4 leukemia
  GI50: 1.45 µM
  TGI: 9.6 µM
OVCAR-5 ovarian
  GI50: 2.49 µM
  TGI: 17.5 µM
OVCAR-3 ovarian
  GI50: 3.26 µM
  TGI: 17.3 µM
SF-295 CNS
  GI50: 0.421 µM
  TGI: 10.7 µM
TK-10 renal
  GI50: 0.648 µM
  TGI: 16.4 µM
BT-549 breast
  GI50: 1.59 µM
  TGI: 13.2 µM
OVCAR-8 ovarian
  GI50: 1.29 µM
  TGI: 10.4 µM
UACC-62 melanoma
  GI50: 1.19 µM
  TGI: 3.41 µM
RPMI-8226 leukemia
  GI50: 1.95 µM
  TGI: 10.8 µM
A498 renal
  GI50: 24.9 µM
  TGI: 40.4 µM
U251 CNS
  GI50: 0.78 µM
  TGI: 12.2 µM
SN12C renal
  GI50: 1.79 µM
  TGI: 11.8 µM
CCRF-CEM leukemia
  GI50: 1.55 µM
  TGI: 6.18 µM
SK-MEL-28 melanoma
  GI50: 2.36 µM
  TGI: 14.1 µM
COLO 205 colon
  GI50: 3.05 µM
  TGI: 12.1 µM
HCT-116 colon
  GI50: 0.73 µM
  TGI: 13.7 µM
NCI-H460 lung
  GI50: 0.591 µM
  TGI: 16.1 µM
DU-145 prostate
  GI50: 3.26 µM
  TGI: 15.7 µM
ACHN renal
  GI50: 0.62 µM
  TGI: 11.2 µM
SK-MEL-5 melanoma
  GI50: 1.52 µM
  TGI: 8.29 µM
HS 578T breast
  GI50: 10 µM
  TGI: 81.9 µM
HT29 colon
  GI50: 2.02 µM
  TGI: 18.1 µM
LOX IMVI melanoma
  GI50: 1 µM
  TGI: 4.05 µM
HOP-92 NSCLC
  GI50: 0.0544 µM
  TGI: 6.37 µM
NCI/ADR-RES ovarian
  GI50: 11.5 µM
  TGI: 29.9 µM
NCI-H522 lung
  GI50: 2.36 µM
  TGI: 11.7 µM
